From patent US9688709B2, “Phosphaplatins and their use for treatment of cancers” (OHIO UNIVERSITY, priority 2010, dated 2017) come the findings set out here.

Where two headings read alike, the source gives them in different places.

Data set [1] is described as follows: Stability in aqueous solution at neutral pH (31P-NMR). Type of data set: physicochemical. The source says: Typically, no decomposition is observed within seven days after dissolving the phosphaplatin compounds in water and observing by ^31P-NMR spectroscopy.
In data set [2] the test system is human ovarian cancer OVCAR-10 xenograft. Kind of data set: In vivo efficacy, OVCAR-10 mouse xenograft. Details: species or system mice. The following applies: 40 mg/kg body weight, during the treatment time. Here is the method:
Stable human clonal ovarian cancer cell lines OVCAR-10 and head and neck cancer UMSCC10b were grown separately in cell culture until 80-90% confluency was reached. Trypsin (GIBCO/BRL, Grand Island, N.Y.) was used to detach adherent cells. Trypsinized cells were thoroughly washed with PBS (Phosphate Buffered Saline) to remove trypsin. Efficacy of phosphaplatin compounds were evaluated by subcutaneously implanting human OVCAR-10 and UMSCC-10b xenograft in SCID Hairless OutBred, SHO-Prkdc^scidHr^hr, (Charles River Labs, Wilmington, Mass.) mice, NIH (NIH III: NIHBNX-F; NIHS-Lystbg Foxnlnu Btkxid, 4-week old female, Taconic (Rensselaer, N.Y.) mice.
(§1) Female SCID/NIH mice 4-5 weeks old were acclimated for one week before initiation of efficacy trials. Cancer cells were re-suspended in PBS and all mice except for negative control mice were injected subcutaneously with from 1×10^6 cells/0.10 mL to 5×10^6 cells/0.10 mL in PBS. The tumor size was evaluated as a function of time. The mice were examined daily for tumor growth. Tumors were measured using digital calipers. The tumor volume was calculated by the formula (W^2×L)/2, where W is the tumor measurement at the widest point, and L is the tumor dimension at the longest point, where the volume of the tumor in mm^3 is equivalent to the weight in mg.
After approximately 2 weeks of the subcutaneous injection of cancer cells, the tumors that had reached a distinguishable tumor sizes (approximately 100 mm^3 to 200 mm^3), phosphaplatin compounds of desired doses were administered intra-peritoneally. These administrations were done one time on day 1, once on day 3, and once on day 5.
Each group of xenograft mice was treated with phosphaplatin compounds, and a matched set was treated with vehicle/placebo (PBS solution) and mock injection (as a control for stress response). […] The xenograft SCID mice/NIH were monitored every day for any adverse events in their health by measuring weight loss/gain and food consumption. Measurements were stopped and the study was ended when the tumor size exceeded 3000 mm^3. […]

For data set [3], the system named is human ovarian cancer A2780 xenograft. In words: In vivo efficacy, A2780 mouse xenograft. The arrangement: species or system mice. Here is the method:
Stable clonal ovarian cancer cell lines A2780 were grown in cell culture until 80-90% confluency was reached. Trypsin (GIBCO/BRL, Grand Island, N.Y.) was used to detach adherent cells. Trypsinized cells were thoroughly washed with PBS (Phosphate Buffered Saline) to remove trypsin. Efficacy of phosphaplatin compounds were evaluated using human ovarian cancer, A2780 by subcutaneous xenograft in SCID Hairless OutBred, SHO-Prkdc^scidHr^hr, (Charles River Labs, Wilmington, Mass.) mice. Female SCID mice 4 to 5 weeks old were acclimated for one week before initiation of efficacy trials.
as §1, with “Cancer” for “Female SCID/NIH mice 4-5 weeks old were acclimated for one week before initiation of efficacy trials. Cancer”, “PBS,” for “PBS”, “PBS and were” for “PBS. The tumor size was”, “evaluated for tumors” for “evaluated”, “time using sterile 26 gauge needles and syringes.” for “time.”, “mg. […]” for “mg.”
The xenograft SCID mice were monitored every day for any adverse events in their health by measuring weight loss/gain and food consumption. […]

With `O=P1(O)OP(=O)(O)[O][Pt]2([NH][C@@H]3CCCC[C@H]3[NH]2)[O]1` (stereo partly drawn) [(1R,2R)-pyrodach-2, ((1R,2R)-1,2-cyclohexanediamine)(dihydrogenpyrophosphato)platinum (II)], the “stability at neutral pH in aqueous solution” value in data set [1] (dissolved in water, observed by 31P-NMR, seven days) is “remarkable stability”. Further, the tumor response entry is on record as “tumor regression” in data set [2] and “tumor regression” in data set [3] (40 mg/kg qodx3, first ten days of treatment).
Turning to `O=P1(O)OP(=O)(O)[O][Pt]2([OH])([OH])([NH][C@@H]3CCCC[C@H]3[NH]2)[O]1` [(1R,2R)-pyrodach-4, ((1R,2R)-1,2-cyclohexanediamine)-trans-dihydroxo(dihydrogenpyrophosphato)platinum (IV)], the “stability at neutral pH in aqueous solution” value in data set [1] is reported as “remarkable stability”. The tumor response result is “tumor regression” in data set [2] and “tumor regression” in data set [3] (10 mg/kg qodx3, first ten days of treatment).
